Test results published in PubChem BioAssay (NCI).
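Briefly, cells in 96-well plates were exposed to five compound concentrations for 48 h, and endpoints were estimated by linear interpolation. At the GI50, growth is halved. TGI denotes the concentration required for complete inhibition of growth.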

How the values were obtained:
Experiment in all cases: DTP human tumour cell line panel, 48 h
[1] = system: OVCAR-3 ovarian
[2] = system: NCI-H226 lung
[3] = system: UACC-257 melanoma
[4] = system: MCF7 breast
[5] = system: DU-145 prostate
[6] = system: OVCAR-8 ovarian
[7] = system: KM12 colon
[8] = system: OVCAR-5 ovarian
[9] = system: SR leukemia
[10] = system: CAKI-1 renal

| SMILES | TGI [1] [µM] | TGI [2] [µM] | TGI [3] [µM] | TGI [4] [µM] | TGI [5] [µM] | TGI [6] [µM] | TGI [7] [µM] | TGI [8] [µM] | TGI [9] [µM] | TGI [10] [µM] | GI50 [2] [µM] | GI50 [6] [µM] | GI50 [7] [µM] | GI50 [9] [µM] | GI50 [10] [µM] |
| --- | --- | --- | --- | --- | --- | --- | --- | --- | --- | --- | --- | --- | --- | --- | --- |
| Cc1cccc(Br)[n+]1[O-] | > 100 | > 100 | > 100 | > 100 | > 100 | > 100 | > 100 | > 100 | > 100 | > 100 |  |  |  |  |  |
| COc1ccccc1Cc1ccc(C2C=CC3(CC(=O)C=C3C)C(=O)C2)o1 (stereo not given) | 23.5 | 61.6 | 68.9 | 34.4 | > 100 | 37.1 | > 100 | > 100 | 43.9 | > 100 |  |  |  |  |  |
| Cc1ccc(C(=O)Nc2ccc(CP(=O)(O)O)cc2)cc1NC(=O)c1cccc(N)c1 | > 100 | > 100 | > 100 | > 100 | > 100 | > 100 | > 100 | > 100 | > 100 | > 100 |  |  |  |  |  |
| COC(=O)/C=C\C(C#N)(C#N)N=Cc1cccc(OC)c1 | 26.1 | 28.7 | 29.8 | 38.9 | 27.7 | 10.5 | 32.6 | 20.1 | > 24.5 | 5.17 |  |  |  |  |  |
| Cc1nc(SCC(=O)Nc2ccc(Cl)cc2)c2sc(=S)n(-c3ccccc3)c2n1 | > 10 | > 10 | > 10 | > 10 | > 10 | > 10 | > 10 | > 10 | > 10 | > 10 |  |  |  |  |  |
| CSC1(C)C(=O)Nc2c(OCc3ccccc3)cc([N+](=O)[O-])cc21 (stereo not given) | > 100 | 31 | > 100 | 44.1 | > 100 | 55.1 | > 100 | > 100 | > 100 | > 100 |  |  |  |  |  |
| S=C(N/N=C(\c1ccccc1)c1ccccn1)NC1CCCCC1 | > 100 | > 100 | > 100 | > 100 | > 100 | 3.44 | > 100 | > 100 | > 100 | > 100 |  |  |  |  |  |
| CCCNC(=S)N/N=C(\C)c1ccc(S(=O)(=O)N(C)c2ccccc2)cc1 | > 100 | > 75.6 | > 100 | > 100 | > 100 | > 100 | > 100 | > 100 | > 100 | 97.7 |  |  |  |  |  |
| NNC(=O)CC(=O)Nc1cccc(Cl)c1 | > 100 | > 100 | > 100 | > 100 | > 100 | > 100 | > 100 | > 100 | > 100 | > 100 |  |  |  |  |  |
| CSc1nc(C)cc(Nc2ccc(O)c(CN3CCOCC3)c2)n1 | > 100 | > 100 | > 100 | > 100 | > 100 | > 100 | > 100 | > 100 | > 100 | > 100 |  |  |  |  |  |
| COc1ccc(OC)c(NCC(=O)Nn2cnc3ccc(S(=O)(=O)Nc4cc(OC)ccc4OC)cc3c2=O)c1 | > 100 | > 100 | > 100 | > 100 | > 100 | > 100 | > 100 | > 100 | > 100 | > 100 |  |  |  |  |  |
| CCOC(=O)NN(C(=O)OCC)C(C(=O)C1=CCCCC1)N(NC(=O)OCC)C(=O)OCC | > 100 | > 100 | > 100 | > 100 | > 100 | > 100 | > 100 | > 100 | > 100 | > 100 |  |  |  |  |  |
| CN(C)c1ccc(/C=C/c2ccc(S(N)(=O)=O)cc2)cc1 | 49.8 | 33 | > 100 | > 100 | 49.8 | 27.5 | > 100 | 53.6 | > 100 | > 100 | 12.1 | 4.95 | 8.28 | 8.58 | 50.3 |
| CC(=O)c1[nH]c(NC(C)C)c(C(=S)Nc2ccccc2)c1N | > 100 | 60.4 | 65.8 | 42.2 | > 100 | 94.9 | > 100 | > 100 | 76.8 | > 100 |  |  |  |  |  |
| COc1cccc(C23CCCC(C2)NCC3Br)c1OC (stereo not given) | > 100 | 5.37 | > 100 | 57.3 | > 100 | > 100 | > 100 | > 100 | 83.1 | > 100 |  |  |  |  |  |
| Cc1cc(Cl)nc2nc(Cl)c(N)cc12 | 3.27 | 51.7 | 3.55 | > 22.2 | 18 | 8.55 | 17.8 | 34 | > 25.2 | 0.871 |  |  |  |  |  |
